# Reference: ChEMBL document CHEMBL4145608, “Dehydrodiconiferyl Alcohol Inhibits Osteoclast Differentiation and Ovariectomy-Induced Bone Loss through Acting as an Estrogen Receptor Agonist” (J Nat Prod, 2018)
# Activity calls are given as the source filed them. The calls are words filed in the database; no cut-off is given here.
# Key:
# RAW264.7 [1] = assay: Inhibition of NF-kappaB/p38 MAPK signaling pathway in mouse RAW264.7 cells assessed as reduction in RANKL-induced NFATc1 mRNA level after 24 hrs by qRT-PCR method; type: cell-based
# Mus musculus [2] = assay: Anti-osteoporotic activity in Balb/c mouse assessed as inhibition of OVX-induced TRAP mRNA expression level in bone marrow at 25 to 100 mg/kg, ip administered for 4 weeks daily by qRT-PCR method; type: functional, organism-based
# Mus musculus [3] = assay: Anti-osteoporotic activity in Balb/c mouse assessed as inhibition of OVX-induced c-Fos mRNA expression level in bone marrow at 25 to 100 mg/kg, ip administered for 4 weeks daily by qRT-PCR method; type: functional, organism-based
# RAW264.7 [4] = assay: Inhibition of RANKL-induced osteoclast differentiation in mouse RAW264.7 cells harboring ERbeta siRNA assessed as decrease in TRAP mRNA level at 20 uM after 24 hrs by qRT-PCR method; type: functional, cell-based
# [5] = target: Calcium/calmodulin-dependent protein kinase kinase 2 (Mus musculus) (UniProt Q8C078); assay: Inhibition of RANKL-induced CAMKKbeta phosphorylation in mouse RAW264.7 cells at 10 to 40 uM after 24 hrs by Western blot analysis; type: cell-based
# RAW264.7 [6] = assay: Inhibition of RANKL-induced osteoclast differentiation in mouse RAW264.7 cells harboring ERbeta siRNA assessed as decrease in TRAP activity at 20 uM after 5 days by microscopy; type: functional, cell-based
# RAW264.7 [7] = assay: Inhibition of RANKL-induced osteoclast differentiation in mouse RAW264.7 cells harboring ERbeta siRNA assessed as decrease in NFATc1 mRNA level at 20 uM after 24 hrs by qRT-PCR method; type: functional, cell-based
# [8] = target: MAP kinase p38 (Mus musculus) (UniProt P47811+O08911+Q9WUI1+Q9Z1B7); assay: Inhibition of p38 MAPK signaling pathway in mouse RAW264.7 cells assessed as reduction in RANKL-induced p38 phosphorylation at 10 to 40 uM after 30 mins by Western blot method; type: cell-based
# RAW264.7 [9] = assay: Inhibition of RANKL-induced osteoclast differentiation in mouse RAW264.7 cells assessed as decrease in TRAP activity at 20 uM after 5 days in presence of ERalpha antagonist MPP by microscopy; type: functional, cell-based
# RAW264.7 [10] = assay: Inhibition of RANKL-induced osteoclast differentiation in mouse RAW264.7 cells assessed as decrease in NFATc1 mRNA level at 20 uM after 24 hrs in presence of ERalpha antagonist MPP by qRT-PCR method; type: functional, cell-based
# [11] = target: T1, Estrogen receptor (Mus musculus) (UniProt P19785); assay: Induction of estrogen receptor-mediated AMPKalpha1 activation in mouse RAW264.7 cells at 20 uM in presence of CAMKKbeta inhibitor STO609; type: cell-based
# T1 sequence (whole entry): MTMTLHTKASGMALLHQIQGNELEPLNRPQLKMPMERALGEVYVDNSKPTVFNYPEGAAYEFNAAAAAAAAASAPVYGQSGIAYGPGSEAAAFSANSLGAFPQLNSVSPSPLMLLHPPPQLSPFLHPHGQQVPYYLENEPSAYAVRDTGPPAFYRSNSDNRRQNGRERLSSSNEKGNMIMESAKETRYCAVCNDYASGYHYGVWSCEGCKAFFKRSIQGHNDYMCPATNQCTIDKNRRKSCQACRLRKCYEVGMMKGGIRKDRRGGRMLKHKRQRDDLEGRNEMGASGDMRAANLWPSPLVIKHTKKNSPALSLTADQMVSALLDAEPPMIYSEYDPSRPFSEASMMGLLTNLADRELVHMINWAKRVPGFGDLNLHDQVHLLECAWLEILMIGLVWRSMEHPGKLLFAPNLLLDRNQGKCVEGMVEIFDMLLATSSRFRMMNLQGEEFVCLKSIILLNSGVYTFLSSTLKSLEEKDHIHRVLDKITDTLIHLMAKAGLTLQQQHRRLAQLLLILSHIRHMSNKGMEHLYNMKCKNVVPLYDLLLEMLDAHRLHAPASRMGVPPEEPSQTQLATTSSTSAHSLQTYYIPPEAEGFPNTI
# RAW264.7 [12] = assay: Inhibition of RANKL-induced osteoclast differentiation in mouse RAW264.7 cells assessed as decrease in c-Fos mRNA level at 20 uM after 24 hrs in presence of ERbeta antagonist PHTPP by qRT-PCR method; type: functional, cell-based
# RAW264.7 [13] = assay: Inhibition of RANKL-induced bone resorption in mouse RAW264.7 cells assessed as reduction in pit formation after 7 days by optical microscopy; type: functional, cell-based
# RAW264.7 [14] = assay: Inhibition of RANKL-induced osteoclast differentiation in mouse RAW264.7 cells harboring AMPKalpha1 siRNA assessed as decrease in c-Fos mRNA level at 20 uM after 24 hrs by qRT-PCR method; type: functional, cell-based
# [15] = target: T2, Estrogen receptor (Homo sapiens) (UniProt P03372); assay: Agonist activity at estrogen receptor (unknown origin) expressed in mouse RAW264.7 cells after 6 hrs by luciferase reporter gene assay; type: cell-based
# T2 sequence (whole entry): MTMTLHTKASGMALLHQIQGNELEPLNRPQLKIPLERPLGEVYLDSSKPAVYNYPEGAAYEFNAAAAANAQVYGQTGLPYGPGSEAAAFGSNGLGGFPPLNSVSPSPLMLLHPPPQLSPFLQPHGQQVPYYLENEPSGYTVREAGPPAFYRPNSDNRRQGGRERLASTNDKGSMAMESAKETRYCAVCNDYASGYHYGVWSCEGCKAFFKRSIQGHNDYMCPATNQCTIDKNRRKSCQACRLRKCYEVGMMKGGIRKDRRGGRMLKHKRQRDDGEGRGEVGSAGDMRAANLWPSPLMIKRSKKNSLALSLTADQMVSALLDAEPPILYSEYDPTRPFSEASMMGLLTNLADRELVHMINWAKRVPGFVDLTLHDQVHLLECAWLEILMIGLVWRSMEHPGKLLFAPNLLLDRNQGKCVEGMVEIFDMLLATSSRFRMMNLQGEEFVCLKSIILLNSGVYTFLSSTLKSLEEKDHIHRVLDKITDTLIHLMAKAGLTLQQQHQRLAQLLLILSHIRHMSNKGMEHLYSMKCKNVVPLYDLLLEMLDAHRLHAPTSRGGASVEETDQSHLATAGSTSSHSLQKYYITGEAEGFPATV
# Mus musculus [16] = assay: Anti-osteoporotic activity in Balb/c mouse assessed as inhibition of OVX-mediated decrease in trabecular bone volume in femur at 25 to 100 mg/kg, ip administered for 4 weeks daily by microcomputed tomography; type: functional, organism-based
# RAW264.7 [17] = assay: Inhibition of RANKL-induced osteoclast differentiation in mouse RAW264.7 cells assessed as decrease in TRAP activity at 10 to 40 uM after 5 days by microscopy; type: functional, cell-based
# RAW264.7 [18] = assay: Inhibition of RANKL-induced osteoclast differentiation in mouse RAW264.7 cells harboring ERalpha siRNA assessed as decrease in TRAP activity at 20 uM after 5 days by microscopy; type: functional, cell-based
# RAW264.7 [19] = assay: Inhibition of NF-kappaB signaling pathway in mouse RAW264.7 cells assessed as reduction in RANKL-induced Akt phosphorylation at 10 to 40 uM after 30 mins by Western blot method; type: cell-based
# Sequence of Calcium/calmodulin-dependent protein kinase kinase 2 (Mus musculus) (Q8C078 2-588 limits assumed): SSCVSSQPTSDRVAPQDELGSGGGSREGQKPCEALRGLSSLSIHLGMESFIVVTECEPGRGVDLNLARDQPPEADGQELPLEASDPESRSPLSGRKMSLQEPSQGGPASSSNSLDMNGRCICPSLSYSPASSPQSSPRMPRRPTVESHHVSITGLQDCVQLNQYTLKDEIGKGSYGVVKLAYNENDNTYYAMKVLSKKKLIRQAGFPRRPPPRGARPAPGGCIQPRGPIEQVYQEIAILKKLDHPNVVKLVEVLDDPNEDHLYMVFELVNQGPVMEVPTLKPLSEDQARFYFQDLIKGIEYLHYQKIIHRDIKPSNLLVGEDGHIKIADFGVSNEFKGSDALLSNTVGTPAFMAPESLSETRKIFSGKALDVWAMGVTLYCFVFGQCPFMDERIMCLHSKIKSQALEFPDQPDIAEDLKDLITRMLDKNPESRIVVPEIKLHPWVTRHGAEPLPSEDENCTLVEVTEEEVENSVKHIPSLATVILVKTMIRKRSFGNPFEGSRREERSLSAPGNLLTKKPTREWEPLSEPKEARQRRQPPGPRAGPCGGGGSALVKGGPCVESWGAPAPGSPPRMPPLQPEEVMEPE
compound,measurement,setting,value
COc1cc(C2Oc3c(OC)cc(/C=C/CO)cc3C2CO)ccc1O (centres undefined),inhibition,RAW264.7 [1],Dose-dependent effect
same,inhibition,Mus musculus [2],Active
same,inhibition,Mus musculus [3],Active
same,inhibition,RAW264.7 [4],Active
same,inhibition,[5],inactive
same,inhibition,RAW264.7 [6],Active
same,inhibition,RAW264.7 [7],Active
same,inhibition,[8],Active
same,inhibition,RAW264.7 [9],inactive
same,inhibition,RAW264.7 [10],inactive
same,Activity,[11],Active
same,inhibition,RAW264.7 [12],Active
same,inhibition,RAW264.7 [13],Dose-dependent effect
same,inhibition,RAW264.7 [14],inactive
same,Activity,[15],Active
same,inhibition,Mus musculus [16],Active
same,inhibition,RAW264.7 [17],Active
same,inhibition,RAW264.7 [18],inactive
same,inhibition,RAW264.7 [19],Active
